In patent publication US10273221B2, “Microbiocidal heterobicyclic derivatives” (Syngenta Participations AG, priority 2015, dated 2019):

Legend:
[1] = tested on: Botryotinia fuckeliana (Botrytis cinerea); test: Botryotinia fuckeliana (Botrytis cinerea) / liquid culture (gray mould); format: cell-based; settings: growth inhibition determined photometrically 3-4 days after application, vs untreated control, read-out: disease control
Fusarium culmorum = test: microbe, parasite or virus in culture; format: cell-based; settings: 72 h, read-out: disease control
Gaeumannomyces graminis = Gaeumannomyces graminis / liquid culture (take-all of cereals); format: cell-based; settings: growth inhibition determined photometrically 4-5 days after application, vs untreated control, read-out: disease control
[2] = tested on: Glomerella lagenarium (Colletotrichum lagenarium); test: Glomerella lagenarium (Colletotrichum lagenarium) / liquid culture (anthracnose); format: cell-based; settings: Colletotrichum orbiculare, growth inhibition measured photometrically 3-4 days after application, vs untreated control, read-out: disease control
[3] = tested on: Monographella nivalis (Microdochium nivale); test: Monographella nivalis (Microdochium nivale) / liquid culture (foot rot cereals); format: cell-based; settings: 96 h, growth inhibition determined photometrically 4-5 days after application, vs untreated control, read-out: disease control
[4] = tested on: Mycosphaerella graminicola (Septoria tritici); test: Mycosphaerella graminicola (Septoria tritici) / liquid culture (Septoria blotch); format: cell-based; settings: Zymoseptoria tritici, 96 h, growth inhibition determined photometrically 4-5 days after application, vs untreated control, read-out: disease control
[5] = tested on: Magnaporthe grisea (Pyricularia oryzae); test: microbe, parasite or virus in culture; format: cell-based; settings: 72 h, read-out: control of Magnaporthe grisea
Pyrenophora teres [6] = test: Pyrenophora teres / liquid culture (net blotch); format: cell-based; settings: growth inhibition determined photometrically 3-4 days after application, vs untreated control
Sclerotinia sclerotiorum = Sclerotinia sclerotiorum / liquid culture (cottony rot); settings: 72 h, read-out: control of Sclerotinia sclerotiorum
Procedure: Sclerotinia sclerotiorum/Liquid Culture (Cottony Rot)
Mycelia fragments of a newly grown liquid culture of the fungus are directly mixed into nutrient broth (Vogels broth). After placing a (DMSO) solution of test compound into a microtiter plate (96-well format) the nutrient broth containing the fungal material is added. The test plates are incubated at 24° C. and the inhibition of growth is determined photometrically 3-4 days after application.

Pyrenophora teres [7] = test: Pyrenophora teres / barley / leaf disc preventative (net blotch); format: in vivo; settings: 200 ppm, barley leaf segments cv. Hasso, inoculated 2 days after application, assessed 5-7 days after application
Procedure: Pyrenophora teres/Barley/Leaf Disc Preventative (Net Blotch)
Barley leaf segments cv. Hasso are placed on agar in a multiwell plate (24-well format) and sprayed with the formulated test compound diluted in water. The leaf segmens are inoculated with a spore suspension of the fungus 2 days after application. The inoculated leaf segments are incubated at 20° C. and 65% rh under a light regime of 12 h light/12 h darkness in a climate cabinet and the activity of a compound is assessed as disease control compared to untreated when an appropriate level of disease damage appears in untreated check leaf segments (5-7 days after application).

Cc1cccc2c1ncn2C1=NC(C)(C)C(C)(C)c2c(F)cccc21 [E-1]
inhibition of growth at 200 ppm [1]: ≥ 80%
inhibition of growth at 200 ppm (Fusarium culmorum): ≥ 80%
inhibition of growth at 200 ppm (Gaeumannomyces graminis): ≥ 80%
inhibition of growth at 200 ppm [2]: ≥ 80%
inhibition of growth at 200 ppm [3]: ≥ 80%
inhibition of growth at 200 ppm [4]: ≥ 80%
inhibition of growth at 20 ppm [5]: ≥ 80%
inhibition of growth at 20 ppm (Pyrenophora teres [6]): ≥ 80%
melting point: 45 to 46 °C
inhibition of growth at 20 ppm (Sclerotinia sclerotiorum): ≥ 80%

Cc1cccc2c1ncn2C1=NC(C)(C)C(C)(C)c2ccccc21 [E-16]
inhibition of growth at 200 ppm [1]: ≥ 80%
inhibition of growth at 200 ppm (Fusarium culmorum): ≥ 80%
inhibition of growth at 200 ppm (Gaeumannomyces graminis): ≥ 80%
inhibition of growth at 200 ppm [2]: ≥ 80%
inhibition of growth at 200 ppm [3]: ≥ 80%
inhibition of growth at 20 ppm [5]: ≥ 80%
control of Pyrenophora teres (Pyrenophora teres [7]): at least 80%
inhibition of growth at 20 ppm (Pyrenophora teres [6]): ≥ 80%
inhibition of growth at 20 ppm (Sclerotinia sclerotiorum): ≥ 80%
